Assay [1] concerns HOS. As to the kind of experiment: In vitro cytotoxic activity, Calcein AM assay, HOS. The class given is cell-based. The conditions noted are these: 72 hours.
The subject of assay [2] is human erythroleukaemia K562. As to the kind of experiment: In vitro cytotoxic activity, Calcein AM assay, K-562. The conditions noted are these: 72 hours, read-out: IC 50 K-562. The class given is cell-based. An excerpt: (§1) One of the parameters used, as the basis for cytotoxicity assays, is the metabolic activity of viable cells. For example, a microtiter assay, which uses the Calcein AM, is now widely used to quantitate cell proliferation and cytotoxicity. For instance, this assay is used in drug screening programs and in chemosensitivity testing. Because only metabolically active cells cleave Calcein AM, these assays detect viable cells exclusively. The quantity of reduced Calcein AM corresponds to the number of vital cells in the culture.
(§2) Human T-lymphoblastic leukemia cell line CEM; promyelocytic HL-60 and monocytic U937 leukemias; breast carcinoma cell lines MCF-7; cervical carcinoma cells HELA; mouse fibroblasts NIH3T3; human erythroleukaemia K562 and human malignant melanoma cells G361 were used for routine screening of compounds. The cells were maintained in Nunc/Corning 80 cm^2 plastic tissue culture flasks and cultured in cell culture medium (DMEM with 5 g/l glucose, 2 mM glutamine, 100 U/ml penicillin, 100 μg/ml streptomycin, 10% fetal calf serum and sodium bicarbonate).
(§3) The cell suspensions that were prepared and diluted according to the particular cell type and the expected target cell density (10^4 cells per well based on cell growth characteristics) were added by pipette (80 μl) into 96/well microtiter plates. Inoculates were allowed a pre-incubation period of 24 hours at 37° C. and 5% CO2 for stabilisation. Four-fold dilutions of the intended test concentration were added at time zero in 20 μl aliquots to the microtiter plate wells. Usually, test compound was evaluated at six 4-fold dilutions. In routine testing, the highest well concentration was 166.7 μM, but it can be the matter of change dependent on the agent. All drug concentrations were examined in duplicates. Incubations of cells with the test compounds lasted for 72 hours at 37° C., in 5% CO2 atmosphere and 100% humidity. At the end of incubation period, the cells were assayed by using the Calcein AM. Ten microliters of the stock solution were pipetted into each well and incubated further for 1 hours. Fluorescence (FD) was measured with the Labsystem FIA Reader Fluoroscan Ascent (UK). The tumour cell survival (GI50) was calculated using the following equitation: GI50=(FDdrug exposed well/mean FDcontrol wells)×100%. The GI50 value, the drug concentration lethal to 50% of the tumour cells, was calculated from the obtained dose response curves (FIG. 3).

Assay [3] has as its system breast carcinoma cell lines MCF-7. As to the kind of experiment: In vitro cytotoxic activity, Calcein AM assay, MCF7. The class given is cell-based, human. The conditions noted are these: 72 hours, read-out: IC 50 MCF7.
Source text: as §1, §2, §3

The subject of assay [4] is mouse fibroblasts NIH3T3. The assay can be described thus: In vitro cytotoxic activity, Calcein AM assay, NIH-3T3. The conditions noted are these: 72 hours, read-out: IC 50 NIH-3T3. In kind it is cell-based.
Source text: as §1, §2, §3

In assay [5] the test system is promyelocytic HL-60. The assay can be described thus: In vitro cytotoxic activity, Calcein AM assay, HL60. In kind it is cell-based, human. The conditions noted are these: 72 hours, read-out: IC 50 HL60.
Source text: as §1, §2, §3

For assay [6], the system named is Triticum aestivum cv. Hereward. As to the kind of experiment: Senescence inhibition on winter wheat leaf segments (chlorophyll retention). The class given is in vivo. The conditions noted are these: for Concentration with highest activity: chlorophyll retention in excised wheat leaf tips, 96 h dark; for Activity (%) [10^−4 mol · l^−1 BAP = 100%]: chlorophyll retention, at concentration with highest activity. On the procedure:
Seeds of winter wheat, Triticum aestivum cv. Hereward, were washed under running water for 24 hours and then sown on vermiculite soaked with Knop's solution. They were placed in the grown chamber at 15° C. with a 16/8 h light period at 50 μmol·m^−2·s^−1. After 7 days, the first leaf was fully developed and the second leaf had started to grow. A tip section of the first leaf, approximately 35 mm long, was removed from 5 seedlings and trimmed slightly to a combined weight of 100 mg. The basal ends of the five leaf tips were placed in the wells of a microtiter polystyrene plate containing 150 μl of a cytokinin solution each. The entire plate was inserted into a plastic box lined with paper tissues soaked in distilled water to prevent leaf sections from drying out. After a 96 h incubation in the dark at 25° C., the leaves were removed and chlorophyll extracted by heating at 80° C. for 10 min in 5 ml of 80% ethanol (v/v). The sample volume was then restored to 5 ml by the addition of 80% ethanol (v/v). The absorbency of the extract was recorded at 665 nm. In addition, chlorophyll extracts from fresh leaves and leaf tips incubated in deionised water were measured. From the obtained data, the concentration with highest activity was selected for each compound tested. Relative activity of the compound at this concentration was calculated (Tab. 10). The activity obtained for 10^−4 M 6-benzylaminopurine (BAP) was postulated as 100%. The values shown are means of five replicates and the whole experiment was repeated twice. The cytokinins to be tested were dissolved in dimethylsulfoxide (DMSO) and the solution brought up to 10^−3M with distilled water. This stock was further diluted in distilled water to concentrations ranging from 10^−8M to 10^−4M.

The test system of assay [7] is tobacco callus Nicotiana tabacum L. cv. Wisconsin 38. As to the kind of experiment: Growth of cytokinin-dependent tobacco callus. In kind it is cell-based. The conditions noted are these: for Activity (%) [10^−5 mol · l^−1 BAP = 100%]: callus growth, at concentration with highest activity; for Concentration with highest activity: fresh callus weight after four weeks. On the procedure:
Cytokinin-dependent tobacco callus Nicotiana tabacum L. cv. Wisconsin 38 was maintained at 25° C. in darkness on modified Murashige-Skoog medium, containing per 1 liter: 4 μmol nicotinic acid, 2.4 μmol pyridoxine hydrochloride, 1.2 μmol thiamine, 26.6 μmol glycine, 1.37 μmol glutamine, 1.8 μmol myo-inositol, 30 g of sucrose, 8 g of agar, 5.37 μmol α-naphtylacetic acid (NAA) and 0.5 μmol benzylaminopurine (BAP). Subcultivation was carried out every three weeks. Fourteen days before the bioassay, the callus tissue was transferred to the media without 6-benzylaminopurine (BAP). Biological activity was determined from the increase in fresh callus weight after four weeks of cultivation. Five replicates were prepared for each cytokinin concentration and the entire test was repeated twice. From the obtained data, the concentration with highest activity was selected for each compound tested. Relative activity of the compound at this concentration was calculated (Tab. 6). […] The cytokinins to be tested were dissolved in dimethylsulfoxide (DMSO) and the solution brought up to 10^−3M with distilled water. This stock was further diluted in the respective media used for the biotest to concentrations ranging from 10^−8M to 10^−4M.

In assay [8] the test system is Amaranthus caudatus cotyledon/hypocotyl explants. As to the kind of experiment: Amaranthus bioassay (betacyanin content). The class given is in vivo. The conditions noted are these: for Concentration with highest activity: 48 h dark; for Activity (%) [10^−5 mol · l^−1 BAP = 100%]: at concentration with highest activity. How it is done: Standard Amaranthus bioassay was performed with several modifications. The seeds of Amaranthus caudatus var. atropurpurea were surface-sterilised in 10% N-chlorobenzenesulfonamide (w/v) for 10 min and washed 5 times in deionized water. They were placed in 15 cm Petri dishes containing paper tissues saturated with deionized water. After 72 h of cultivation at 25° C. in darkness, the roots of the seedlings were cut off. The explants, consisting of two cotyledons and hypocotyls, were placed in 5 cm Petri dishes on two layers of filter paper soaked in 1 ml of incubation medium containing 10 μmol NA2HPO4-KH2PO4, pH 6.8, 5 μmol tyrosine and the cytokinin to be tested. There were 20 explants per dish. The procedure was carried out under a green safe light in a darkroom. After a 48 h of incubation at 25° C. in darkness, betacyanin was extracted by freezing the explants in 4 ml […] acetic acid. The concentration of betacyanin was determined by comparing the absorbance at 537 nm and 620 nm as follows: ΔA=[…]-[…]. From the obtained data, the concentration with highest activity was selected for each compound tested. Relative activity of the compound at this concentration was calculated (Tab. 12). […] The values shown in table 8 are means of five replicates and the entire test was repeated twice. The cytokinins to be tested were dissolved in dimethylsulfoxide (DMSO) and the solution brought up to 10^-3M with distilled water. This stock was further diluted in the respective media used for the biotest to concentrations ranging from 10^-8M to 10^-4M. […] From the data obtained (FIG. 14) the maximum effective concentration of the tested compound was calculated as well as its relative effectiveness at this concentration (Table 12). […]

For assay [9], the system named is Human T-lymphoblastic leukemia cell line CEM. As to the kind of experiment: In vitro cytotoxic activity, Calcein AM assay, CEM. In kind it is cell-based. The conditions noted are these: 72 hours.
Source text: as §1, §2, §3

Turning to `OC[C@H]1O[C@@H](n2cnc3c(NCc4c(F)ccc(F)c4F)ncnc32)[C@H](O)[C@@H]1O` [2,3,6-trifluorobenzylamino, 6-(2,3,6-trifluorobenzylamino)purine riboside], the IC50 was over 167 µM in assay [1]; over 167 µM in assay [2]; over 167 µM in [3]; over 167 µM in assay [4]; 13 µM in [5]. Also, the “Concentration with highest activity” value in assay [6] was 10^−4 mol · l^−1; in assay [7], 10^−5 mol · l^−1; in assay [8], 10^−4 mol · l^−1. Further, the “Activity (%) [10^−4 mol · l^−1 BAP = 100%]” value in assay [6] is recorded as 133 ± 14%. The “Activity (%) [10^−5 mol · l^−1 BAP = 100%]” value in assay [7] was 92 ± 2%; in assay [8] it was 94 ± 1%.
For `OC[C@H]1O[C@@H](n2cnc3c(NCc4ccc(Br)cc4)ncnc32)[C@H](O)[C@@H]1O` [4-bromobenzylamino, 6-(4-bromobenzylamino)purine riboside], the IC50 in assay [1] was over 167 µM; in assay [2], 68.2 µM; in assay [3], over 167 µM; in [4], over 167 µM; in assay [9], 20.6 µM; in [5] it was 47.4 µM. Besides, the “Concentration with highest activity” value in [6] is listed as 10^−4 mol · l^−1; in assay [7], 10^−6 mol · l^−1; in assay [8], 10^−5 mol · l^−1. Besides, the “Activity (%) [10^−4 mol · l^−1 BAP = 100%]” value in assay [6] is 76 ± 11%. Moreover, the results for the “Activity (%) [10^−5 mol · l^−1 BAP = 100%]” value in [7] and in assay [8] were 15 ± 11% and 30 ± 8%, respectively.
For the compound `OC[C@H]1O[C@@H](n2cnc3c(NCc4cccc(I)c4)ncnc32)[C@H](O)[C@@H]1O` [3-jodobenzylamino, 6-(3-iodobenzylamino)purine riboside], in [6], the “Concentration with highest activity” value was 10^−4 mol · l^−1 and the “Activity (%) [10^−4 mol · l^−1 BAP = 100%]” value was 98 ± 4%. Also, in assay [7], the “Activity (%) [10^−5 mol · l^−1 BAP = 100%]” value was found to be 47 ± 12% and the “Concentration with highest activity” value is recorded as 10^−6 mol · l^−1. In [8], the “Concentration with highest activity” value is 10^−5 mol · l^−1 and the “Activity (%) [10^−5 mol · l^−1 BAP = 100%]” value is 102 ± 18%.
As for `OC[C@H]1O[C@@H](n2cnc3c(NCc4ccc(F)c(Cl)c4)ncnc32)[C@H](O)[C@@H]1O` [3-chloro-4-fluorobenzylamino, 6-(3-chloro-4-fluorobenzylamino)purine riboside], the IC50 in assay [1] is over 167 µM; in assay [2], 4.1 µM; in assay [3] it was over 167 µM; in [4], over 167 µM; in assay [9], 3.4 µM; in assay [5], 3.5 µM. For the same compound, the “Concentration with highest activity” value in [6] is 10^−4 mol · l^−1; in assay [7] it was 10^−6 mol · l^−1; in assay [8] it was 10^−4 mol · l^−1. For the same compound, in assay [6], the “Activity (%) [10^−4 mol · l^−1 BAP = 100%]” value is 156 ± 10%. Further, the “Activity (%) [10^−5 mol · l^−1 BAP = 100%]” value worked out at 87 ± 4% in assay [7] and 82 ± 5% in assay [8].
`OC[C@H]1O[C@@H](n2cnc3c(NCc4ccc(F)cc4Cl)ncnc32)[C@H](O)[C@@H]1O` [2-chloro-4-fluorobenzylamino, 6-(2-chloro-4-fluorobenzylamino)purine riboside]: the IC50 in assay [1] is over 167 µM; in assay [2] it was 11.7 µM; in [3] it was over 167 µM; in assay [4], over 167 µM; in assay [9] it was 20.9 µM; in assay [5], 9 µM. Moreover, the “Activity (%) [10^−5 mol · l^−1 BAP = 100%]” value was determined as 98 ± 4% in [7] and 115 ± 1% in assay [8]. In addition, the “Concentration with highest activity” value in [7] was 10^−5 mol · l^−1; in assay [8], 10^−4 mol · l^−1.
Turning to `OC[C@H]1O[C@@H](n2cnc3c(NCc4cc(F)cc(F)c4)ncnc32)[C@H](O)[C@@H]1O` [3,5-difluorobenzylamino, 6-(3,5-difluorobenzylamino)purine riboside], the IC50 is over 167 µM in assay [1]; over 167 µM in assay [2]; over 167 µM in assay [3]; over 167 µM in assay [4]; 24.5 µM in [9]; 9.1 µM in assay [5]. Also, the “Concentration with highest activity” value in assay [6] is 10^−4 mol · l^−1; in [7] it was 10^−6 mol · l^−1; in assay [8], 10^−4 mol · l^−1. In [6], the “Activity (%) [10^−4 mol · l^−1 BAP = 100%]” value was found to be 195 ± 14%. The “Activity (%) [10^−5 mol · l^−1 BAP = 100%]” value amounted to 95 ± 3% in assay [7] and 88 ± 1% in assay [8].
As to `OC[C@H]1O[C@@H](n2cnc3c(NCc4cc(F)c(F)cc4F)ncnc32)[C@H](O)[C@@H]1O` [2,4,5-trifluorobenzylamino, 6-(2,4,5-trifluorobenzylamino)purine riboside], in assay [7], the “Activity (%) [10^−5 mol · l^−1 BAP = 100%]” value is on record as 95 ± 3% and the “Concentration with highest activity” value is 10^−5 mol · l^−1. Besides, in assay [8], the “Concentration with highest activity” value is 10^−4 mol · l^−1 and the “Activity (%) [10^−5 mol · l^−1 BAP = 100%]” value was 120 ± 1%.

Values taken from patent US8119614B2, “Substitution derivatives of N6-benzyladenosine, methods of their preparation, their use for preparation of drugs, cosmetic preparations and growth regulators, pharmaceutical preparations, cosmetic preparations and growth regulators containing these compounds” (Ustav Experimentalni Botaniky Akademie Ved Ceske Republiky, priority 2002, dated 2012).
